According to PubChem BioAssay (NCI):
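Each compound was tested at five concentrations against cells in 96-well plates for 48 hours. Abbreviation: GI50, concentration required for 50% inhibition of growth. TGI: total growth inhibition.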

Columns and labels:
Assay in all cases: NCI-60 cell line screen, 48 h
OVCAR-5 ovarian = system: OVCAR-5 ovarian
ACHN renal = system: ACHN renal
OVCAR-3 ovarian = system: OVCAR-3 ovarian
HCT-15 colon = system: HCT-15 colon
HS 578T breast = system: HS 578T breast
HT29 colon = system: HT29 colon
HL-60(TB) leukemia = system: HL-60(TB) leukemia
SF-295 CNS = system: SF-295 CNS
SK-OV-3 ovarian = system: SK-OV-3 ovarian
HOP-92 NSCLC = system: HOP-92 NSCLC

| Compound | GI50 (OVCAR-5 ovarian) | TGI (OVCAR-5 ovarian) | GI50 (ACHN renal) | TGI (ACHN renal) | GI50 (OVCAR-3 ovarian) | TGI (OVCAR-3 ovarian) | GI50 (HCT-15 colon) | TGI (HCT-15 colon) | GI50 (HS 578T breast) | TGI (HS 578T breast) | GI50 (HT29 colon) | TGI (HT29 colon) | GI50 (HL-60(TB) leukemia) | TGI (HL-60(TB) leukemia) | GI50 (SF-295 CNS) | TGI (SF-295 CNS) | GI50 (SK-OV-3 ovarian) | TGI (SK-OV-3 ovarian) | GI50 (HOP-92 NSCLC) | TGI (HOP-92 NSCLC) |
| --- | --- | --- | --- | --- | --- | --- | --- | --- | --- | --- | --- | --- | --- | --- | --- | --- | --- | --- | --- | --- |
| CCN1C(=O)N(CC)C2C1NN=c1s/c(=C\c3ccc(Cl)cc3Cl)c(=O)n12 (stereo not drawn) | 54.7 nM | > 81500 nM | 51.3 nM | > 51200 nM | 26.3 nM | 66.5 nM | 35 nM | > 100000 nM | 37.9 nM | > 50500 nM | 32.9 nM | 12300 nM | 22.7 nM | 53.4 nM | 31.5 nM | 27100 nM | 44.8 nM | > 100000 nM | 275 nM | 64000 nM |
| COc1ccc2c(c1)C(=O)/C(=C/c1cccc(OCC(=O)c3ccccc3)c1)CC2 | > 100000 nM | > 100000 nM | 31800 nM | > 100000 nM | 18300 nM | > 100000 nM | 7110 nM | > 100000 nM | 43700 nM | > 100000 nM | 9900 nM | > 100000 nM | 2180 nM | 5160 nM | 10300 nM | > 100000 nM | 62900 nM | > 100000 nM | – | 792 nM |
| COc1ccc(-c2noc(C(=O)O)c2-c2cc(OC)c(OC)c(OC)c2)cc1 | 5820 nM | > 100000 nM | 7420 nM | > 100000 nM | 1710 nM | > 100000 nM | 881 nM | > 100000 nM | 3380 nM | > 100000 nM | 1500 nM | > 100000 nM | 2190 nM | 6410 nM | 1570 nM | > 100000 nM | 3900 nM | > 100000 nM | 3540 nM | > 100000 nM |
| C[C@@H](NC(C#N)c1ccco1)c1ccccc1 (stereo partly drawn) | – | > 100000 nM | – | > 100000 nM | – | > 100000 nM | – | > 100000 nM | – | > 100000 nM | – | > 100000 nM | – | > 100000 nM | – | > 100000 nM | – | > 100000 nM | – | > 100000 nM |
| Cc1c2cnccc2c(C)c2c1c1cc(C#N)ccc1n2C | 262 nM | 1470 nM | 45.7 nM | 456 nM | 215 nM | 792 nM | 96.6 nM | 850 nM | 241 nM | 1300 nM | 87.1 nM | 1050 nM | 401 nM | 1770 nM | 201 nM | 859 nM | 245 nM | 920 nM | 180 nM | 708 nM |
| O=C(c1ccc2ccccc2c1)c1c(C(F)(F)F)n([O-])c2ccc(C(F)(F)F)cc2[n+]1=O | 992 nM | 4200 nM | 566 nM | 1710 nM | 884 nM | 2260 nM | 732 nM | 2070 nM | 1440 nM | 3970 nM | 439 nM | 1430 nM | 639 nM | 2200 nM | 1290 nM | 2740 nM | 1790 nM | 3200 nM | 899 nM | 2280 nM |
| CCSC1=NC2C(N(CC)C(=O)N2CC)N1/N=C/C=C/c1ccccc1[N+](=O)[O-] (stereo not drawn) | 426 nM | > 100000 nM | 121 nM | > 100000 nM | 169 nM | – | 204 nM | > 100000 nM | 118 nM | > 100000 nM | 160 nM | > 100000 nM | 205 nM | 502 nM | 61.2 nM | > 100000 nM | 329 nM | > 100000 nM | 1170 nM | > 83800 nM |
| O=C1/C(=C/c2ccc([N+](=O)[O-])cc2)CN(C(=O)CCN2CCC(=NO)CC2)C/C1=C\c1ccc([N+](=O)[O-])cc1 | 1570 nM | 3970 nM | 893 nM | 2460 nM | 801 nM | 2310 nM | 771 nM | 3900 nM | 1980 nM | 9860 nM | 477 nM | 1930 nM | 1850 nM | 6880 nM | 2090 nM | 5390 nM | 5960 nM | 17400 nM | 2810 nM | 9360 nM |
